# From patent US9447122B2, “Arginase inhibitors and methods of use thereof” (AstraZeneca AB, priority 2010, dated 2016)
# Counter-ions that a name gives are not always drawn. Like-named read-outs stand apart in the source and are kept apart here.
# Columns and labels:
# human arginase I = biological target: T1, human arginase I (Homo sapiens, UniProt P05089); test: Arginase inhibition, QuantiChrom colorimetric urea assay, IC50 converted to Ki; assay type: biochemical
# T1 sequence (P05089 1-322): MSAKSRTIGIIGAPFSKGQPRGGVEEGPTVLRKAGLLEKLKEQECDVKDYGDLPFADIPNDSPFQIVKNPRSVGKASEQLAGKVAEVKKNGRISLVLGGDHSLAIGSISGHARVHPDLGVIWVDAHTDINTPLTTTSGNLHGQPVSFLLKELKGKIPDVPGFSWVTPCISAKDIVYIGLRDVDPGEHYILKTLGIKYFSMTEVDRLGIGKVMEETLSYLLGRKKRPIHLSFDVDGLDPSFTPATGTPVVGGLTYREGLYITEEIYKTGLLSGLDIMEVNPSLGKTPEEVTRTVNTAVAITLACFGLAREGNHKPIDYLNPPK
# Description: (§1) For some compounds, their inhibitory potency at pH 7.5 was compared to the inhibitory potency of ABH at pH 7.5.
# (§2) Quantitative determination of arginase activity was performed in a 96-well format by a colorimetric method using the QuantiChrom™ Arginase Assay Kit available from BioAssay Systems (Hayward, Calif., Catalog No. DARG-200) according to the manufacturer's protocol. Modifications were made to reagent quantities to suit the assaying of a highly purified sample.
# (§3) The intensity of the color was directly proportional to the arginase activity in the sample.
# (§4) The rate of urea production was measured in the presence of twelve different concentrations of each potential inhibitor compound. In a typical assay, seven different compounds were tested relative to a control inhibitor (e.g. ABH) against one enzyme (either human ArgI or human ArgII) at a particular pH (either 9.5 or 7.5). The pH of the solution was controlled using an appropriate pH buffering compound at 60 mM concentrations; for example, 60 mM glycine (pH 9.5) or 60 mM HEPES (pH 7.5). The half maximal inhibitory concentration (IC50) was determined by constructing a dose-response curve.
# human arginase II = biological target: T2, human arginase II (Homo sapiens, UniProt P78540); test: as above; assay type: biochemical
# T2 sequence (P78540 23-354): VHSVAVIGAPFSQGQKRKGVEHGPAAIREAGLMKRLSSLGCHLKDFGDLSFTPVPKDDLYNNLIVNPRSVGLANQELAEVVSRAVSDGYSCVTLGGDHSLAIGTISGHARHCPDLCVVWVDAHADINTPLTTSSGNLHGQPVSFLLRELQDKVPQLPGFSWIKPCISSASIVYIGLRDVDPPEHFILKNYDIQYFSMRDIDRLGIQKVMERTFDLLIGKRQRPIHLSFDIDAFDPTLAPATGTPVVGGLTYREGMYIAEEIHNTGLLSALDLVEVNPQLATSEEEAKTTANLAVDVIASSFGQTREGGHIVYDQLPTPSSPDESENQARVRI
# Description: as §1, §2, §3, §4
# Arg I and/or Arg II = test: pH effect: inhibitory potency at pH 7.5 compared with pH 9.5; assay type: biochemical, human; settings: for increased potency for at least one isozyme: Table 2, pH 7.5 vs pH 9.5; for potency at pH 7.5 as compared to pH 9.5, arginases: both or at least one of the arginases
# Description: as §1
# as §4, with “curve. As IC50 values are dependent upon the measurement conditions, the IC50 values were converted to the inhibitor binding affinity (K1) using the Cheng-Prusoff equation and the affinity constant (Km) of L-arginine which was estimated with the same activity assay (see, e.g., Cheng et al., 1973, Biochem. Pharmacol. 22:3099-108).” for “curve.”
# [1] = Table 2, pH 7.5, read-out: human arginase I pH 7.5, Ki assigned value
# [2] = Table 2, pH 9.5, read-out: human arginase I pH 9.5, Ki assigned value
# [3] = Table 2, pH 7.5, read-out: human arginase II pH 7.5, Ki assigned value
# [4] = Table 2, pH 9.5, read-out: human arginase II pH 9.5, Ki assigned value
# [5] = Table 3, pH 7.5, read-out: human Arginase I pH 7.5, Ki assigned value
# [6] = Table 3, pH 9.5, read-out: human Arginase I pH 9.5, Ki assigned value
# [7] = Table 3, pH 7.5, read-out: human Arginase II pH 7.5, Ki assigned value
# [8] = Table 3, pH 9.5, read-out: human Arginase II pH 9.5, Ki assigned value
Compound,Ki (human arginase I; [1]) [nM],Ki (human arginase I; [2]) [nM],Ki (human arginase II; [3]) [nM],Ki (human arginase II; [4]) [nM],increased potency for at least one isozyme (Arg I and/or Arg II),"potency at pH 7.5 as compared to pH 9.5, arginases (Arg I and/or Arg II)",change of human arginase I inhibitory potency (human arginase I; pH decreased from 9.5 to 7.5),Ki (human arginase I; [5]) [nM],Ki (human arginase I; [6]) [nM],Ki (human arginase II; [7]) [nM],Ki (human arginase II; [8]) [nM],selectivity for arginase I over arginase II (Arg I and/or Arg II; at pH 7.5 / lower pHs)
"NC(CCCCB(O)O)(CCCC1CCNCC1)C(=O)O (stereo not drawn) [Comparative Example 1, reference compound]",101 to 250,11 to 50,> 400,< 10,no ^b,lower potencies,–,–,–,–,–,–
"NC(CCCCB(O)O)(CCCC1CCN(Cc2ccc(Cl)c(Cl)c2)CC1)C(=O)O (stereo not drawn) [Comparative Example 2, reference compound]",101 to 250,11 to 50,101 to 250,11 to 50,no ^b,decreased potencies,–,–,–,–,–,–
"NC(CCCCB(O)O)(CCCC1CCN(Cc2ccc(F)cc2)CC1)C(=O)O (stereo not drawn) [Comparative Example 3, reference compound]",251 to 400,11 to 50,251 to 400,11 to 50,no ^b,decreased potencies,–,–,–,–,–,–
"NC(CCCCB(O)O)(CCCN1CCNCC1)C(=O)O (stereo not drawn) [Comparative Example 4, 2-Amino-6-borono-2-(3-(piperazine-1-yl)propyl)hexanoic acid trifluoroacetate salt, reference compound]",11 to 50,51 to 100,> 400,11 to 50,yes ^a,–,increased potency,–,–,–,–,–
NC(CCCCB(O)O)(CCCN1CCC(NC(=O)Nc2ccc(Cl)c(Cl)c2)C1)C(=O)O (stereo not drawn) [Example 112],–,–,–,–,–,–,–,< 10,< 10,< 10,11 to 50,–
NC(CCCCB(O)O)(CCCN1CCC(NS(=O)(=O)c2ccc(Cl)c(Cl)c2)C1)C(=O)O (stereo not drawn) [Example 114],–,–,–,–,–,–,–,< 10,11 to 50,< 10,11 to 50,–
NC(CCCCB(O)O)(CCCn1cnc2ccccc21)C(=O)O (stereo not drawn) [Example 116],–,–,–,–,–,–,–,251 to 400,11 to 50,11 to 50,11 to 50,–
CN(CCCC(N)(CCCCB(O)O)C(=O)O)Cc1ccc2ccccc2c1 (stereo not drawn) [Example 120],–,–,–,–,–,–,–,< 10,11 to 50,< 10,< 10,–
"NC(CCCCB(O)O)(CCCN1CCN(C(=O)c2ccc(Cl)c(Cl)c2)CC1)C(=O)O (stereo not drawn) [Example 129, 2-amino-6-borono-(3-(4-(3,4-dichlorobenzoyl)piperazine-1-yl)propyl)hexanoic acid]",–,–,–,–,–,–,–,11 to 50,51 to 100,251 to 400,51 to 100,selectivity for arginase I over arginase II
